Test results from patent US8211662B2, “Nitroreductase enzymatic substrates” (Biomerieux, priority 2007, dated 2012).

Legend:
Enterococcus 6 strains = experiment: Detection of various strains of S. aureus in the presence of substrates; type: cell-based
[1] = system: Morganella morganii 462403 (wild); experiment: Nitroreductase detection on Columbia agar, colonies read under UV; type: cell-based; parameters: key to Intensity of fluorescence, Morganella morganii 462403 / F: fluorescence (intensity), Morganella morganii 462403 (wild) / Intensity of the fluorescence, Morganella morganii 462403 (wild): − = no fluorescence detected; +/− = weak fluorescence; + = medium fluorescence; ++ = strong fluorescence; conditions: 100 mg/l in Columbia agar, 24 h 37° C., UV 360-365 nm
Experimental: (§1) A mass of 40 mg of each substrate was dissolved in 4 ml of dimethylformamide (DMF). This solution was entirely taken up in 400 ml of Columbia agar autoclaved beforehand and kept molten at 50° C. The final concentration for each substrate was 100 mg/l.
(§2) Each of the media was distributed into Petri dishes 90 mm in diameter, in a proportion of 20 ml per dish.
(§3) 18 microorganism strains derived from collections and belonging to various species of bacteria and of yeasts were inoculated onto these media by semi-quantitative isolation of 10 μl of a suspension at 0.5 McFarland diluted to 1/20. The media were incubated for 24 hours at 37° C., then the colonies formed were examined visually under UV illumination at 360-365 nm.

S. epidermidis 2 strains = experiment: Detection of various strains of S. aureus in the presence of substrates; type: cell-based
Experimental: as §1, §2
18 microorganism strains derived from collections and belonging to various species of bacteria and of yeasts were inoculated onto these media by semi-quantitative isolation of 10 μl of a suspension at 0.5 McFarland diluted to 1/20. […]

Staph spp 12 strains = experiment: as above; type: cell-based
[2] = system: S. aureus (including MRSA) 10 strains; experiment: as above; type: cell-based, Staphylococcus aureus; conditions: for No. of strains detected, S. aureus (including MRSA): 10 strains
[3] = system: Acinetobacter baumanii ATCC 19606; experiment: Nitroreductase detection on Columbia agar, colonies read under UV; type: cell-based; parameters: key to Intensity of fluorescence, Acinetobacter baumanii ATCC 19606 / Intensity of the fluorescence, Acinetobacter baumanii ATCC 19606: − = no fluorescence detected; +/− = weak fluorescence; + = medium fluorescence; ++ = strong fluorescence
Experimental: as §1, §2, §3

[4] = system: Citrobacter freundii 46262 (wild); experiment: as above; type: cell-based; parameters: key: − = no fluorescence detected; +/− = weak fluorescence; + = medium fluorescence; ++ = strong fluorescence; conditions: Table 4; 100 mg/l in Columbia agar, 24 h 37° C., UV 360-365 nm
Experimental: as §1, §2, §3

[5] = system: Streptococcus pyogenes NCTC 8306; experiment: as above; type: cell-based; parameters: key: − = no fluorescence detected; +/− = weak fluorescence; + = medium fluorescence; ++ = strong fluorescence; conditions: 100 mg/l in Columbia agar, 24 h 37° C., UV 360-365 nm
Experimental: as §1, §2, §3

[6] = system: Staphylococcus epidermidis NCTC 11047; experiment: as above; type: cell-based; parameters: key: − = no fluorescence detected; +/− = weak fluorescence; + = medium fluorescence; ++ = strong fluorescence; conditions: 100 mg/l in Columbia agar, 24 h 37° C., UV 360-365 nm
Experimental: as §1, §2, §3

[7] = system: Candida albicans ATCC 90028; experiment: as above; type: cell-based; parameters: key: − = no fluorescence detected; +/− = weak fluorescence; + = medium fluorescence; ++ = strong fluorescence; conditions: 100 mg/l in Columbia agar, 24 h 37° C., UV 360-365 nm
Experimental: as §1, §2, §3

[8] = system: Providencia rettgeri NCTC 7475; experiment: as above; type: cell-based; parameters: key: − = no fluorescence detected; +/− = weak fluorescence; + = medium fluorescence; ++ = strong fluorescence; conditions: Table 4; 100 mg/l in Columbia agar, 24 h 37° C., UV 360-365 nm
Experimental: as §1, §2, §3

[9] = system: Yersinia enterocolitica NCTC 11176; experiment: as above; type: cell-based; parameters: key: − = no fluorescence detected; +/− = weak fluorescence; + = medium fluorescence; ++ = strong fluorescence; conditions: 100 mg/l in Columbia agar, 24 h 37° C., UV 360-365 nm
Experimental: as §1, §2, §3

[10] = system: Enterobacter cloacae NCTC 11936; experiment: as above; type: cell-based; parameters: key: − = no fluorescence detected; +/− = weak fluorescence; + = medium fluorescence; ++ = strong fluorescence; conditions: 100 mg/l in Columbia agar, 24 h 37° C., UV 360-365 nm
Experimental: as §1, §2, §3

[11] = system: Enterococcus faecium NCTC 7171; experiment: as above; type: cell-based; parameters: key: − = no fluorescence detected; +/− = weak fluorescence; + = medium fluorescence; ++ = strong fluorescence; conditions: Table 4; 100 mg/l in Columbia agar, 24 h 37° C., UV 360-365 nm
Experimental: as §1, §2, §3

[12] = system: Pseudomonas aeruginosa NCTC 10662; experiment: as above; type: cell-based; parameters: key: − = no fluorescence detected; +/− = weak fluorescence; + = medium fluorescence; ++ = strong fluorescence; conditions: 100 mg/l in Columbia agar, 24 h 37° C., UV 360-365 nm
Experimental: as §1, §2, §3

[13] = system: Listeria monocytogenes NCTC 11994; experiment: as above; type: cell-based; parameters: key: − = no fluorescence detected; +/− = weak fluorescence; + = medium fluorescence; ++ = strong fluorescence; conditions: 100 mg/l in Columbia agar, 24 h 37° C., UV 360-365 nm
Experimental: as §1, §2, §3

[14] = system: Escherichia coli NCTC 10418; experiment: as above; type: cell-based; parameters: key: − = no fluorescence detected; +/− = weak fluorescence; + = medium fluorescence; ++ = strong fluorescence; conditions: 100 mg/l in Columbia agar, 24 h 37° C., UV 360-365 nm
Experimental: as §1, §2, §3

[15] = system: Enterococcus faecalis NCTC 775; experiment: as above; type: cell-based; parameters: key: − = no fluorescence detected; +/− = weak fluorescence; + = medium fluorescence; ++ = strong fluorescence; conditions: 100 mg/l in Columbia agar, 24 h 37° C., UV 360-365 nm
Experimental: as §1, §2, §3

[16] = system: Serratia marcescens NCTC 10211; experiment: as above; type: cell-based; parameters: key: − = no fluorescence detected; +/− = weak fluorescence; + = medium fluorescence; ++ = strong fluorescence; conditions: 100 mg/l in Columbia agar, 24 h 37° C., UV 360-365 nm
Experimental: as §1, §2, §3

[17] = system: Staphylococcus aureus NCTC 6571; experiment: as above; type: cell-based; parameters: key: − = no fluorescence detected; +/− = weak fluorescence; + = medium fluorescence; ++ = strong fluorescence; conditions: 100 mg/l in Columbia agar, 24 h 37° C., UV 360-365 nm
Experimental: as §1, §2, §3

[18] = system: Bacillus subtilis NCTC 9372; experiment: as above; type: cell-based; parameters: key: − = no fluorescence detected; +/− = weak fluorescence; + = medium fluorescence; ++ = strong fluorescence; conditions: 100 mg/l in Columbia agar, 24 h 37° C., UV 360-365 nm
Experimental: as §1, §2, §3

MRSA NCTC 11939 = experiment: as above; type: cell-based, Staphylococcus aureus; parameters: key: − = no fluorescence detected; +/− = weak fluorescence; + = medium fluorescence; ++ = strong fluorescence; conditions: 100 mg/l in Columbia agar, 24 h 37° C., UV 360-365 nm
Experimental: as §1, §2, §3

[19] = system: Candida glabrata NCPF 3943; experiment: as above; type: cell-based; parameters: key to Intensity of fluorescence, Candida glabrata NCPF3943 / F: fluorescence (intensity), Candida glabrata NCPF 3943 / Intensity of the fluorescence, Candida glabrata NCPF 3943: − = no fluorescence detected; +/− = weak fluorescence; + = medium fluorescence; ++ = strong fluorescence; conditions: 100 mg/l in Columbia agar, 24 h 37° C., UV 360-365 nm
Experimental: as §1, §2, §3

[20] = system: Salmonella typhimurium NCTC 74; experiment: as above; type: cell-based; parameters: key to Intensity of fluorescence, Salmonella typhimurium NCTC 74 / F: fluorescence (intensity), Salmonella typhimurium NCTC 74 / Intensity of the fluorescence, Salmonella typhimurium NCTC 74: − = no fluorescence detected; +/− = weak fluorescence; + = medium fluorescence; ++ = strong fluorescence
Experimental: as §1, §2, §3

[21] = 100 mg/l in Columbia agar, 24 h 37° C., UV 360-365 nm
[22] = Table 4, 100 mg/l in Columbia agar, 24 h 37° C., UV 360-365 nm

Compound: O=[N+]([O-])c1ccc(F)cc1-c1nc2ccccc2s1 [Substrate 15]
- No. of strains detected, Enterococcus (Enterococcus 6 strains; 24 h): 0
- No. of strains detected, Enterococcus (Enterococcus 6 strains; 48 h): 1
- Intensity of fluorescence, Morganella morganii 462403 [1]: ++
- Intensity of the fluorescence, Morganella morganii 462403 (wild) ([1]; Table 4): ++
- No. of strains detected, S. epidermidis (S. epidermidis 2 strains; 24 h): 0
- No. of strains detected, S. epidermidis (S. epidermidis 2 strains; 48 h): 2
- No. of strains detected, Staph spp (Staph spp 12 strains; 24 h): 12
- No. of strains detected, Staph spp (Staph spp 12 strains; 48 h): 12
- Distinguishing or identifying Staphylococcus aureus strains, in particular MRSA, from most of the other Gram-positive bacterial strains [2]: make it possible to distinguish or identify the Staphylococcus aureus strains
- No. of strains detected, S. aureus (including MRSA) ([2]; 24 h): 10
- No. of strains detected, S. aureus (including MRSA) ([2]; 48 h): 10
- Intensity of fluorescence, Acinetobacter baumanii ATCC 19606 [3, 21]: +
- Intensity of the fluorescence, Acinetobacter baumanii ATCC 19606 [3, 22]: +
- Distinguishing Pseudomonas aeruginosa from Acinetobacter baumanii ([3]; table 2): make it possible to distinguish Pseudomonas aeruginosa from Acinetobacter baumanii
- Intensity of the fluorescence, Citrobacter freundii 46262 (wild) [4]: ++
- Intensity of fluorescence, Streptococcus pyogenes NCTC 8306 [5]: −
- Intensity of the fluorescence, Streptococcus pyogenes NCTC 8306 ([5]; Table 4): −
- Intensity of fluorescence, Staphylococcus epidermidis NCTC 11047 [6]: −
- Intensity of the fluorescence, Staphylococcus epidermidis NCTC 11047 ([6]; Table 4): −
- Intensity of fluorescence, Candida albicans ATCC 90028 [7]: −
- Intensity of the fluorescence, Candida albicans ATCC 90028 ([7]; Table 4): −
- Intensity of the fluorescence, Providencia rettgeri NCTC 7475 [8]: ++
- Intensity of fluorescence, Yersinia enterocolitica NCTC 11176 [9]: −
- Intensity of the fluorescence, Yersinia enterocolitica NCTC 11176 ([9]; Table 4): −
- Intensity of fluorescence, Enterobacter cloacae NCTC 11936 [10]: ++
- Intensity of the fluorescence, Enterobacter cloacae NCTC 11936 ([10]; Table 4): ++
- Intensity of the fluorescence, Enterococcus faecium NCTC 7171 [11]: −
- Intensity of fluorescence, Pseudomonas aeruginosa NCTC 10662 [12]: −
- Intensity of the fluorescence, Pseudomonas aeruginosa NCTC 10662 ([12]; Table 4): +
- Intensity of fluorescence, Listeria monocytogenes NCTC 11994 [13]: −
- Intensity of the fluorescence, Listeria monocytogenes NCTC 11994 ([13]; Table 4): −
- Intensity of fluorescence, Escherichia coli NCTC 10418 [14]: ++
- Intensity of the fluorescence, Escherichia coli NCTC 10418 ([14]; Table 4): ++
- Intensity of fluorescence, Enterococcus faecalis NCTC 775 [15]: −
- Intensity of the fluorescence, Enterococcus faecails NCTC 775 ([15]; Table 4): −
- Intensity of fluorescence, Serratia marcescens NCTC 10211 [16]: ++
- Intensity of the fluorescence, Serratia marcescens NCTC 10211 ([16]; Table 4): ++
- Intensity of fluorescence, Staphylococcus aureus NCTC 6571 [17]: ++
- Intensity of the fluorescence, Staphylococcus aureus NCTC 6571 ([17]; Table 4): ++
- Intensity of fluorescence, Bacillus subtilis NCTC 9372 [18]: −
- Intensity of the fluorescence, Bacillus subtilis NCTC 9372 ([18]; Table 4): −
- Intensity of fluorescence, Staphylococcus aureus NCTC 11939 (MRSA NCTC 11939): ++
- Intensity of the fluorescence, MRSA NCTC 11939 (MRSA NCTC 11939; Table 4): ++
- Intensity of fluorescence, Candida glabrata NCPF3943 [19]: −
- Intensity of the fluorescence, Candida glabrata NCPF 3943 ([19]; Table 4): −
- Intensity of fluorescence, Salmonella typhimurium NCTC 74 [20, 21]: ++
- Intensity of the fluorescence, Salmonella typhimurium NCTC 74 [20, 22]: ++
- Salmonella typhimurium result with the substrate ([20]; table 2): strongly positive
